# In PubChem BioAssay (NCI):
#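 Tested at 5 concentrations; 48 h exposure; 96-well plates; endpoints linearly interpolated, else capped at highest concentration. At the GI50, growth is halved. Definition used: TGI = concentration required for complete inhibition of growth.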
# Legend:
# Experiment in all cases: NCI-60 cell line screen, 48 h
# [1] = system: PC-3 prostate
# [2] = system: SN12C renal
# [3] = system: SNB-75 CNS
# [4] = system: UACC-62 melanoma
# [5] = system: MOLT-4 leukemia
# [6] = system: HL-60(TB) leukemia
# [7] = system: SW-620 colon
# [8] = system: TK-10 renal
# [9] = system: SR leukemia
# [10] = system: EKVX NSCLC
# [11] = system: MCF7 breast
# [12] = system: CAKI-1 renal
# [13] = system: ACHN renal
# [14] = system: CCRF-CEM leukemia
# [15] = system: A549 NSCLC
# [16] = system: NCI-H23 lung
# [17] = system: OVCAR-8 ovarian
# [18] = system: HOP-62 NSCLC
# [19] = system: MALME-3M melanoma
# [20] = system: UACC-257 melanoma
# [21] = system: SF-539 CNS
# [22] = system: 786-0 renal
# [23] = system: SK-MEL-2 melanoma
# [24] = system: SF-268 CNS
# [25] = system: SK-MEL-5 melanoma
# [26] = system: UO-31 renal
# [27] = system: HS 578T breast
# [28] = system: M14 melanoma
# [29] = system: SF-295 CNS
# [30] = system: HOP-92 NSCLC
# [31] = system: KM12 colon
# [32] = system: MDA-MB-435
# [33] = system: SK-OV-3 ovarian
# [34] = system: LOX IMVI melanoma
# [35] = system: HCT-116 colon
# [36] = system: DU-145 prostate
# [37] = system: A498 renal
# [38] = system: U251 CNS
# [39] = system: RXF 393 renal
# [40] = system: HCC-2998 colon
# [41] = system: OVCAR-4 ovarian
# [42] = system: SK-MEL-28 melanoma
# [43] = system: COLO 205 colon
# [44] = system: NCI-H226 lung
# [45] = system: K-562 leukemia
# [46] = system: OVCAR-5 ovarian
# [47] = system: NCI/ADR-RES ovarian
# [48] = system: MDA-MB-231 breast
# [49] = system: MDA-MB-468 breast
# [50] = system: SNB-19 CNS
# [51] = system: BT-549 breast
# [52] = system: IGROV1 ovarian
# [53] = system: NCI-H460 lung
# [54] = system: HT29 colon
# [55] = system: NCI-H522 lung
# [56] = system: OVCAR-3 ovarian
# [57] = system: RPMI-8226 leukemia
# [58] = system: HCT-15 colon
smiles,measurement,setting,value
Oc1ccc(F)c(Nc2nc(SCCN3CCOCC3)nc3c2cnn3CC(Cl)c2ccc(Br)cc2)c1 (stereo unspecified),GI50,[1],4.51 µM
same,TGI,[1],> 100 µM
same,GI50,[2],3.37 µM
same,TGI,[2],24.9 µM
same,GI50,[3],3.23 µM
same,TGI,[3],22.3 µM
same,GI50,[4],3.98 µM
same,TGI,[4],15.6 µM
same,GI50,[5],2.83 µM
same,TGI,[5],14.6 µM
same,GI50,[6],3.42 µM
same,TGI,[6],33.6 µM
same,GI50,[7],7.38 µM
same,TGI,[7],> 100 µM
same,GI50,[8],21.1 µM
same,TGI,[8],62.5 µM
same,GI50,[9],1.61 µM
same,TGI,[9],> 100 µM
same,GI50,[10],4.44 µM
same,TGI,[10],> 100 µM
same,GI50,[11],2.87 µM
same,TGI,[11],40.2 µM
same,GI50,[12],9.49 µM
same,TGI,[12],> 100 µM
same,GI50,[13],3.48 µM
same,TGI,[13],45.1 µM
same,GI50,[14],3.67 µM
same,TGI,[14],54 µM
same,GI50,[15],4.06 µM
same,TGI,[15],> 100 µM
same,GI50,[16],4.74 µM
same,TGI,[16],18.1 µM
same,GI50,[17],4.27 µM
same,TGI,[17],56.5 µM
same,GI50,[18],5.08 µM
same,TGI,[18],39 µM
same,GI50,[19],2.86 µM
same,TGI,[19],11.5 µM
same,GI50,[20],5.48 µM
same,TGI,[20],23 µM
same,GI50,[21],4.33 µM
same,TGI,[21],16.3 µM
same,GI50,[22],5.02 µM
same,TGI,[22],75.2 µM
same,GI50,[23],10.2 µM
same,TGI,[23],22.4 µM
same,GI50,[24],6.23 µM
same,TGI,[24],> 100 µM
same,GI50,[25],4.05 µM
same,TGI,[25],15.7 µM
same,GI50,[26],3.15 µM
same,TGI,[26],55 µM
same,GI50,[27],2 µM
same,TGI,[27],8.19 µM
same,GI50,[28],4.18 µM
same,TGI,[28],16.4 µM
same,GI50,[29],2.66 µM
same,TGI,[29],11.1 µM
same,GI50,[30],4.53 µM
same,TGI,[30],> 100 µM
same,GI50,[31],5.22 µM
same,TGI,[31],> 100 µM
same,GI50,[32],6.74 µM
same,TGI,[32],24.3 µM
same,GI50,[33],11 µM
same,TGI,[33],84.6 µM
same,GI50,[34],2.56 µM
same,TGI,[34],10.5 µM
same,GI50,[35],3.29 µM
same,TGI,[35],16.2 µM
same,GI50,[36],8.03 µM
same,TGI,[36],> 100 µM
same,GI50,[37],14.5 µM
same,TGI,[37],45 µM
same,GI50,[38],5.19 µM
same,TGI,[38],18.5 µM
same,GI50,[39],1.36 µM
same,TGI,[39],4.34 µM
same,GI50,[40],3.64 µM
same,TGI,[40],15.4 µM
same,GI50,[41],6.92 µM
same,TGI,[41],> 100 µM
same,GI50,[42],4.44 µM
same,TGI,[42],24.3 µM
same,GI50,[43],17 µM
same,TGI,[43],34.7 µM
same,GI50,[44],3.82 µM
same,TGI,[44],43.7 µM
same,GI50,[45],1.69 µM
same,TGI,[45],14.5 µM
same,GI50,[46],6.62 µM
same,TGI,[46],39.5 µM
same,GI50,[47],3.35 µM
same,TGI,[47],29.1 µM
same,GI50,[48],2.8 µM
same,TGI,[48],9.68 µM
same,GI50,[49],2.44 µM
same,TGI,[49],9.54 µM
same,GI50,[50],9.02 µM
same,TGI,[50],> 100 µM
same,GI50,[51],7.46 µM
same,TGI,[51],22.7 µM
same,GI50,[52],3.7 µM
same,TGI,[52],22.7 µM
same,GI50,[53],4.38 µM
same,TGI,[53],65.4 µM
same,GI50,[54],3.33 µM
same,TGI,[54],12.8 µM
same,GI50,[55],4.6 µM
same,TGI,[55],27.9 µM
same,GI50,[56],8.88 µM
same,TGI,[56],> 100 µM
same,GI50,[57],4.31 µM
same,TGI,[57],25.7 µM
same,GI50,[58],2.72 µM
same,TGI,[58],20.5 µM
